One assay deals with human AKT1 (Homo sapiens (Human), UniProt P31749). Nature of the assay: AKT1 kinase activity inhibition (TR-FRET, biotinylated Crosstide substrate). In kind it is biochemical. Conditions: preincubation 120 min at 25° C.; ATP 150 μM; Crosstide 500 nM. On the procedure:
(§1) Preparation of AKT1 and AKT2 and measurement of in vitro inhibitory activity of the above-mentioned compounds against AKT1 and AKT2 kinase activity were carried out with reference to the method disclosed in Biochem. J. Vol. 385, pp 399-408 (2005). In the preparation of AKT1 and AKT2, human AKT1 and AKT2 to which a middle T antigen tag was added were expressed in Sf 9 insect cells, and then AKT1 and AKT2 were prepared following affinity purification and activation by PDK1. The prepared AKT1 and AKT2 were stored at −80° C. until the time of measurement of inhibitory activity of the compounds. In the measurement of inhibitory activity of the compounds, AKT1 or AKT2 and each compound of the present invention were preincubated at 25° C. for 120 minutes in a buffer solution for reaction (15 mM Tris-HCl pH 7.5, 0.01% Tween-20, 2 mM DTT). As a substrate, biotinylated Crosstide (bioton-KGSGSGRPRTSSFAEG), MgCl2, and ATP were added to final concentrations of 500 nM, 10 mM, and 150 μM, respectively, and reactions were carried out at 25° C. for 60 minutes. The reactions were stopped by adding EDTA to a final concentration of 80 mM. Then, a detection liquid in which an Eu-labeled anti-phosphorylation Crosstide antibody (PerkinElmer) and SureLight APC-SA (PerkinElmer) were contained at a final concentration of 0.5 nM and […], respectively, was added, and reactions were carried out at room temperature for 2 hours. Finally, the amount of fluorescence at the time of irradiation of excitation light having a wavelength of 337 nm was measured at dual wavelengths of 620 nm and 665 nm by PHERAstar FS (BMG LABTECH). The amount of phosphorylation was determined from the ratio of the fluorescence amounts at the dual wavelengths. The compound concentration at which phosphorylation can be inhibited by 50% was defined as […] (nM), and the results are shown in Table 4 below.

The target of the next assay is human AKT2 (Homo sapiens (Human), UniProt P31751). Nature of the assay: AKT2 kinase activity inhibition (TR-FRET, biotinylated Crosstide substrate). Conditions: preincubation 120 min at 25° C.; ATP 150 μM; Crosstide 500 nM. In kind it is biochemical. The protocol: as §1
A general note: In TR-FRET formats the signal depends on donor and acceptor labels being close together.

pIC50: −log10 of the molar value. Structures can show the parent of a compound that is named as a salt.

Usually pIC50 stands for the negative decadic logarithm of the IC50, by convention in mol/L. Read a low pIC50 as a high IC50.

human AKT1, sequence (P31749 whole entry): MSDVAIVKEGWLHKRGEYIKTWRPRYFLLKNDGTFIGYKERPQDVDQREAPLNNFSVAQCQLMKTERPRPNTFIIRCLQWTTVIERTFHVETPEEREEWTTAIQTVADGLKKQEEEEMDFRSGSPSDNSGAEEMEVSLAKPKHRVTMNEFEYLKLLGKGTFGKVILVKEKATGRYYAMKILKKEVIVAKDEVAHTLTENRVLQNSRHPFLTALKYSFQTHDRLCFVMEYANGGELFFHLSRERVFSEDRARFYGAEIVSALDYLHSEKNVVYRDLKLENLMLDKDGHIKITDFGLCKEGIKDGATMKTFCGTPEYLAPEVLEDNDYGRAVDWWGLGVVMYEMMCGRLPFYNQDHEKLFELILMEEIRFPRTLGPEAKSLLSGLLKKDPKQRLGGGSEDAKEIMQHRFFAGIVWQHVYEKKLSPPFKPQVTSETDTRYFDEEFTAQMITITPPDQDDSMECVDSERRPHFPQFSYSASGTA
human AKT2, sequence (P31751 whole entry): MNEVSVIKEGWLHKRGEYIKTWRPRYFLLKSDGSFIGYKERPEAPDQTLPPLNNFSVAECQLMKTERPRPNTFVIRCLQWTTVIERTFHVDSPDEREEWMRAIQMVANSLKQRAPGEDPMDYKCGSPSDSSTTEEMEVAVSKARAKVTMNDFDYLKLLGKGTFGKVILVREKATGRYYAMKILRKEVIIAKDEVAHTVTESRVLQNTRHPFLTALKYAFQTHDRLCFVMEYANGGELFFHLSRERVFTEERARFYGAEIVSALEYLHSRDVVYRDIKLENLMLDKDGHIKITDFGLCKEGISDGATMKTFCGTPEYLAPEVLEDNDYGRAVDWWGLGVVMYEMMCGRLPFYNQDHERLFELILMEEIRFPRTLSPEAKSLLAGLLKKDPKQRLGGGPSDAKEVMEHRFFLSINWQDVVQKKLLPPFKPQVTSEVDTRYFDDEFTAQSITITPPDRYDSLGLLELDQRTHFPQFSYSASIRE

With `NC1(c2ccc(-c3nc4n(c3-c3ccccc3)COc3ncccc3-4)cc2)CCC1` [Example 40, 1-(4-(3-phenyl-5H-imidazo[1,2-c]pyrido[3,2-e][1,3]oxazin-2-yl)phenyl)cyclobutanamine], the negative-log IC50 (pIC50) against human AKT1 is 8.41; at human AKT2 it was 8.80.

For the compound `CCC1(O)CC(N)(c2ccc(-c3nc4n(c3-c3ccccc3)COc3nccnc3-4)cc2)C1` (stereo not drawn) [Example 43, trans-3-amino-1-ethyl-3-(4-(3-phenyl-5H-imidazo[1,2-c]pyrazino[2,3-e][1,3]oxazin-2-yl)phenyl)cyclobutanol], the pIC50 was 8.10 on human AKT1 and 8.15 at human AKT2.

`CC1(O)CC(N)(c2ccc(-c3nc4n(c3-c3ccccc3)COc3cc(CO)ccc3-4)cc2)C1` (stereo not drawn) [Example 45, trans-3-amino-3-(4-(8-(hydroxymethyl)-3-phenyl-5H-benzo[e]imidazo[1,2-c][1,3]oxazin-2-yl)phenyl)-1-methylcyclobutanol]: the pIC50 on human AKT1 was 8.07; against human AKT2, 8.57.

As to `CC1(O)CC(N)(c2ccc(-c3nc4n(c3-c3ccccc3)COc3cc(C#N)ccc3-4)cc2)C1` (stereo not drawn) [Example 47, 2-(4-(trans-1-amino-3-hydroxy-3-methylcyclobutyl)phenyl)-3-phenyl-5H-benzo[e]imidazo[1,2-c][1,3]oxazine-8-carbonitrile], the pIC50 against human AKT1 was 8.21; at human AKT2, 8.92.

For `CC1(O)CC(N)(c2ccc(-c3nc4n(c3-c3ccccc3)COc3ccc(-c5cn[nH]c5)cc3-4)cc2)C1` (stereo not drawn) [Example 49, trans-3-amino-1-methyl-3-(4-(3-phenyl-9-(1H-pyrazol-4-yl)-5H-benzo[e]imidazo[1,2-c][1,3]oxazin-2-yl)phenyl)cyclobutanol], the pIC50 is 8.89 at human AKT1 and 9.38 at human AKT2.

Regarding `Cc1ccc2c(n1)-c1nc(-c3ccc(C4(N)CC(C)(O)C4)cc3)c(-c3ccccc3)n1CO2` (stereo not drawn) [Example 50, trans-3-amino-1-methyl-3-(4-(9-methyl-3-phenyl-5H-imidazo[1,2-c]pyrido[2,3-e][1,3]oxazin-2-yl)phenyl)cyclobutanol], the pIC50 against human AKT1 was 7.96; at human AKT2 it was 9.07.

Regarding `COc1ccc2c(n1)-c1nc(-c3ccc(C4(N)CC(C)(O)C4)cc3)c(-c3ccccc3)n1CO2` (stereo not drawn) [Example 51, trans-3-amino-3-(4-(9-methoxy-3-phenyl-5H-imidazo[1,2-c]pyrido[2,3-e][1,3]oxazin-2-yl)phenyl)-1-methylcyclobutanol], the pIC50 is 8.26 against human AKT1 and 8.96 against human AKT2.

`CNC(=O)c1ccc2c(c1)-c1nc(-c3ccc([C@]4(N)C[C@](C)(O)C4)cc3)c(-c3ccccc3)n1CO2` [Example 52, 2-(4-(trans-1-amino-3-hydroxy-3-methylcyclobutyl)phenyl)-N-methyl-3-phenyl-5H-benzo[e]imidazo[1,2-c][1,3]oxazine-9-carboxamide]: the values for the pIC50 against human AKT1 and at human AKT2 were 8.82 and 9.55, respectively.

With `CC1(O)CC(N)(c2ccc(-c3nc4n(c3-c3ccccc3)COc3ccc(C(N)=O)cc3-4)cc2)C1` (stereo not drawn) [Example 53, 2-(4-(trans-1-amino-3-hydroxy-3-methylcyclobutyl)phenyl)-3-phenyl-5H-benzo[e]imidazo[1,2-c][1,3]oxazine-9-carboxamide], the pIC50 against human AKT1 is 8.80; on human AKT2 it was 9.59.

For `CN(C)C(=O)c1ccc2c(c1)-c1nc(-c3ccc(C4(N)CC(C)(O)C4)cc3)c(-c3ccccc3)n1CO2` (stereo not drawn) [Example 54, 2-(4-(trans-1-amino-3-hydroxy-3-methylcyclobutyl)phenyl)-N,N-dimethyl-3-phenyl-5H-benzo[e]imidazo[1,2-c][1,3]oxazine-9-carboxamide], the pIC50 at human AKT1 is 8.36; on human AKT2 it was 8.89.

With `CCNC(=O)c1ccc2c(c1)-c1nc(-c3ccc(C4(N)CC(C)(O)C4)cc3)c(-c3ccccc3)n1CO2` (stereo not drawn) [Example 55, 2-(4-(trans-1-amino-3-hydroxy-3-methylcyclobutyl)phenyl)-N-ethyl-3-phenyl-5H-benzo[e]imidazo[1,2-c][1,3]oxazine-9-carboxamide], the values for the negative-log IC50 (pIC50) against human AKT1 and on human AKT2 were 8.74 and 9.51, respectively.

Consider `CN(C)C(=O)c1ccc2c(c1)OCn1c-2nc(-c2ccc(C3(N)CC(C)(O)C3)cc2)c1-c1ccccc1` (stereo not drawn) [Example 57, 2-(4-(trans-1-amino-3-hydroxy-3-methylcyclobutyl)phenyl)-N,N-dimethyl-3-phenyl-5H-benzo[e]imidazo[1,2-c][1,3]oxazine-8-carboxamide], for which the pIC50 at human AKT1 was 7.82; against human AKT2 it was 8.46.

As to `CC1(O)CC(N)(c2ccc(-c3nc4n(c3-c3ccccc3)COc3cc(C(=O)NCCO)ccc3-4)cc2)C1` (stereo not drawn) [Example 58, 2-(4-(trans-1-amino-3-hydroxy-3-methylcyclobutyl)phenyl)-N-(2-hydroxyethyl)-3-phenyl-5H-benzo[e]imidazo[1,2-c][1,3]oxazine-8-carboxamide], the values for the negative-log IC50 (pIC50) against human AKT1 and against human AKT2 were 8.51 and 9.15, respectively.

As to `CC1(O)CC(N)(c2ccc(-c3nc4n(c3-c3ccccc3)COc3ccc(C(=O)NCCO)cc3-4)cc2)C1` (stereo not drawn) [Example 60, 2-(4-(trans-1-amino-3-hydroxy-3-methylcyclobutyl)phenyl)-N-(2-hydroxyethyl)-3-phenyl-5H-benzo[e]imidazo[1,2-c][1,3]oxazine-9-carboxamide], the pIC50 on human AKT1 is 8.62; against human AKT2 it was 9.24.

In the case of `CCONC(=O)c1ccc2c(c1)-c1nc(-c3ccc([C@]4(N)C[C@](C)(O)C4)cc3)c(-c3ccccc3)n1CO2` [Example 61, 2-(4-(trans-1-amino-3-hydroxy-3-methylcyclobutyl)phenyl)-N-ethoxy-3-phenyl-5H-benzo[e]imidazo[1,2-c][1,3]oxazine-9-carboxamide], the negative logarithm of the IC50 (pIC50) against human AKT1 was 8.74; on human AKT2, 9.40.

With `CC1(O)CC(N)(c2ccc(-c3nc4n(c3-c3ccccc3)COc3cc(C(N)=O)ccc3-4)cc2)C1` (stereo not drawn) [Example 62, 2-(4-(trans-1-amino-3-hydroxy-3-methylcyclobutyl)phenyl)-3-phenyl-5H-benzo[e]imidazo[1,2-c][1,3]oxazine-8-carboxamide], the pIC50 at human AKT1 was 8.89; at human AKT2 it was 9.40.

On to `CC1(O)CC(N)(c2ccc(-c3nc4n(c3-c3ccccc3)COc3ccc(C(=O)O)cc3-4)cc2)C1` (stereo not drawn) [Example 63, 2-(4-(trans-1-amino-3-hydroxy-3-methylcyclobutyl)phenyl)-3-phenyl-5H-benzo[e]imidazo[1,2-c][1,3]oxazine-9-carboxylic acid hydrochloride], for which the pIC50 is 8.30 against human AKT1 and 9.04 on human AKT2.

For `CC1(O)CC(N)(c2ccc(-c3nc4n(c3-c3ccccc3)COc3cc(C(=O)O)ccc3-4)cc2)C1` (stereo not drawn) [Example 64, 2-(4-(trans-1-amino-3-hydroxy-3-methylcyclobutyl)phenyl)-3-phenyl-5H-benzo[e]imidazo[1,2-c][1,3]oxazine-8-carboxylic acid hydrochloride], the pIC50 was 8.51 against human AKT1 and 9.03 against human AKT2.

With “trans-3-amino-1-methyl-3-(4-(3-phenyl-5H-imidazo[1,2-c]pyrazino[2,3-e][1,3]oxazin-2-yl)phenyl)cyclobutanol [Example 42]”, the negative logarithm of the IC50 (pIC50) against human AKT1 was 8.19; against human AKT2, 8.40.

The values above are taken from patent publication US8772283B2, “Imidazo-oxazine compound or salt thereof” (Taiho Pharmaceutical Co., Ltd., priority 2011, dated 2014).
